Laboratory results: patent US12516293B2, “Reagents and methods with Wnt agonists and bioactive lipids for generating and expanding cardiomyocytes” (The Board of Trustees of the Leland Stanford Junior …, priority 2018, dated 2026)
Values belong to the molecule of their own block, whether it stands above or below them.

What was measured:
Type in all cases: cell-based, human
hiPSC-CMs [1] = experiment: Sarcomere alignment and contractility on micropatterns; details: C59 added to cells previously treated with CHIR (CHIR>C59)
Procedure: Cells were plated on soft substrates with micropatterned proteins on top. After 3-6 days of culture high resolution movies (Sony Microscopy) were recorded for at least 10 individual cells per group and motion velocity analysis was processed digitally. After recordings, cells were fixed and used for immunohistochemistry and confocal imaging. Sarcomere alignment was quantified with Image J software. CM maturation is accompanied by the formation of highly structured sarcomere, bi- or multinucleation, and cell cycle exit (Bassat et al., 2017; Bersell et al., 2009; Senyo et al., 2014; Uygur and Lee, 2016). […] To address this, age-matched hiPSC-CMs exposed to media containing DMSO (CTR) were compared to ones that have undergone 3 passages in media containing 2.0 μM CHIR using various phenotypic assays of CM function. To assess sarcomere alignment, CHIR and CTR hiPSC-CMs on 7:1 aspect ratio micropatterns (Ribeiro et al., 2015) were cultured and immunostained with TnT and sarcomeric actinin antibodies.

hiPSC-CMs [2] = experiment: ki67/pHH3 proliferation and binucleation of hiPSC-CMs (immunofluorescence); details: day 12 hiPSC-CMs (P0), 24 hrs treatment
Procedure: Immunohistochemistry was performed with the incubation of primary antibodies overnight followed by 2 hours of incubation with various Alexa fluorescence conjugated secondary antibodies. Images were made with confocal (Zeiss LSM 710) or regular immunofluorescence microscopy (Leica DM IL LED). Primaries used in this study were cardiac troponin T (MS-295, Fisher), Ki67 (ab15580, Abcam), pHH3 (#9701, Cell Signaling), aurora B (ab2254, Abcam), alpha sarcomeric actinin ([…], Sigma-Aldrich), MLC2V (ab48003, Abcam), phospo AKT […] (#9275, Cell Signaling). […] To examine this, the percentage was determined of troponin T (TnT) positive hiPSC-CMs that express the cell cycle marker ki67 or the mitosis marker phospho-histone H3 (pHH3) at each passage after treatment with CHIR or DMSO (CTR) (FIG. 2A-C). […] The short-term (24 hrs) changes were assessed in proliferation rate of day 12 hiPSC-CMs (P0) after treatment with CHIR-, CTR-, or C59, a specific inhibitor of Wnt signaling (FIG. 2I-J).

hiPSC-CMs [3] = experiment: Real-time PCR / immunostaining of cardiac gene expression in hiPSC-CMs
Procedure: For quantitative analysis of gene expression, RNA was extracted with a lysis buffer (Qiagen) from hiPSC-CMs and stored at −80° C. Total RNA from each sample was purified from cell lysate using a RNA purification kit (Qiagen). cDNA was made using iScript cDNA synthesis kit (BioRad). Quantitative PCR was performed using a 96-well thermocycler system (Biorad) with SYBR Green substrate (Affymetrix) for 40 cycles. All primers sequences were obtained from the PrimerBank (Massachusetts General Hospital/Harvard Medical School) online database. […] Day 12 hiPSC-CMs were cultured in CHIR continuously for 2 months with serial passaging followed by CHIR withdrawal for an additional month.

YAP = YAP nuclear accumulation in hiPSC-CMs; details: day 10 or day 30 hiPSC-CMs
Procedure: Given the well-known role of Hippo/Yap signaling in regulating cardiomyocyte and non-myocyte proliferation and regeneration (Yusuf et al. 2012; Heallen et al. 2011; Morikawa et al. 2017; Leach et al. 2017; von Gise et al. 2012), the ability of bioactive lipids was assessed to promote nuclear accumulation of Yap (FIG. 23). […] Consequently, no increase in nuclear YAP accumulation was observed following bioactive lipid treatment (FIG. 23B).

hiPSC-CMs [4] = experiment: CHIR-mediated hiPSC-CM proliferation with pathway inhibitors
TCF/LEF = experiment: TOPFlash TCF/LEF luciferase reporter in day 12 hiPSC-CMs
Procedure: Day 12 hiPSC-CMs were transfected for 48h with a TCF reporter plasmid (TOPflash M50, Addgene) or the mutant reporter plasmid (TOPflash M51, Addgene) and the use of Lipofectamine 3000 (Invitrogen). 72h after transfection cells were treated with various small molecules for 24h. Cells were lysed and mixed with luciferase substrate (Promega) and the firefly luciferase expression was measured with a 96-well micro plate reader (Fisher).

hiPSC-CMs [5] = experiment: Cell cycle activity in well-differentiated hiPSC-CMs (ki67, pHH3, cell count); details: 5 μM VPC23019 together with S1P
Procedure: To address this, well-differentiated hiPSC-CMs were generated (e.g. day 30 or later) using chemically-defined protocols (Burridge et al. 2014; Churko et al. 2013; Sharma et al. 2015) (Movie S1) and treated them with S1P/LPA or CHIR or both (FIG. 18A). The presence of S1P/LPA receptors in these cells was first validated (FIG. 21). Immunofluorescence staining was then performed for ki67, a marker of cell cycle activity, and phospho Histone H3 (pHH3), a mitosis marker, in cardiac troponin T (TnT) positive cells.

hiPSC-CMs [6] = experiment: Wnt receptor ligands on hiPSC-CM expansion and cell-cycle reactivation; details: day 12 proliferative hiPSC-CMs
Source text: Reactivating Wnt signaling may promote proliferation in aged, non-proliferative CMs rather than simply maintain pre-existing proliferation (FIG. 6A). […]

Molecule: Cc1cc(-c2ccc(CC(=O)Nc3ccc(-c4cccnc4)cc3)cc2)ccn1 [C59]
- sarcomere organization after C59 (hiPSC-CMs [1]): reorganization of their sarcomeres to a state similar to the age-matched control hiPSC-CMs
- ki67 expression / proliferation rate (hiPSC-CMs [2]): did not result in a decreased rate of hiPSC-CM proliferation
- expression of maturation, excitation, contractility and metabolism markers (hiPSC-CMs [3]; 3 additional weeks after CHIR day 12 to 28, compared with continued CHIR): upregulation of markers associated with cardiomyocyte maturation
- MYL2 immunofluorescence staining (hiPSC-CMs [3]; compared with CHIR-treated cells): increase in immunofluorescence staining for MYL2

Molecule: lysophosphatidic acid [LPA]
- YAP nuclear accumulation (YAP): No significant (N.S.) increase in YAP nuclear accumulation

- CHIR-induced activation of TCF/LEF luciferase reporter (TCF/LEF; CHIR in the presence of PNU74654, 24 hrs): abolished
Molecule: Cc1ccc(/C=N/NC(=O)c2ccccc2Oc2ccccc2)o1 [PNU74654]
- CHIR-induced Wnt target gene expression (hiPSC-CMs [3]; co-treatment with CHIR, qPCR): abolish this increase
- markers of hiPSC-CM maturation (MYL2, MYH7, MYOM1) (hiPSC-CMs [3]; co-treatment with CHIR, qPCR): recovered fully
- decrease of CHIR-mediated hiPSC-CM proliferation (hiPSC-CMs [4]; CHIR in the presence of PNU74654 vs CHIR alone): ~50%

Molecule: CCCCCCCCc1cccc(NC(=O)[C@H](N)COP(=O)(O)O)c1 [VPC23019]
- expression of ki67 in S1P-treated hiPSC-CMs (hiPSC-CMs [5]): reduced

Molecule: NC1(c2ccc(-c3nc4ccn5c(=O)[nH]nc5c4cc3-c3ccccc3)cc2)CCC1 [MK2206]
- mitotic cells expressing pAKT (hiPSC-CMs [4]; CHIR and MK2206 vs CHIR alone): far fewer mitotic cells
- CM replication (hiPSC-CMs [4]; CHIR and MK2206 vs CHIR alone, 6 days): decreased
- TCF/LEF luciferase activity (TCF/LEF; CHIR and MK2206, 24 hrs): not due to the downregulation of downstream β-catenin signaling

B1: Wnt3A: purified Wnt3A protein (R&D systems), Wnt receptor ligand (protein, UniProt P56704 19-352, looked up)
Protein Wnt-3a: SYPIWWSLAVGPQYSSLGSQPILCASIPGLVPKQLRFCRNYVEIMPSVAEGIKIGIQECQHQFRGRRWNCTTVHDSLAIFGPVLDKATRESAFVHAIASAGVAFAVTRSCAEGTAAICGCSSRHQGSPGKGWKWGGCSEDIEFGGMVSREFADARENRPDARSAMNRHNNEAGRQAIASHMHLKCKCHGLSGSCEVKTCWWSQPDFRAIGDFLKDKYDSASEMVVEKHRESRGWVETLRPRYTYFKVPTERDLVYYEASPNFCEPNPETGSFGTRDRTCNVSSHGIDGCDLLCCGRGHNARAERRREKCRCVFHWCCYVSCQECTRVYDVHTCK
- CM expansion (TnT positive cell number) (hiPSC-CMs [6]): promoted CM expansion
